Assay results taken from ChEMBL document CHEMBL1201862, “PubChem BioAssay data set” (2004).
Where “and” joins values, the source holds several entries; their conditions need not be identical. Equal values may be shown once.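 Growth conditions: 96-well plates. Treatment: test compound, 48 hours, 5 concentrations. Analysis: linear interpolation between bracketing concentrations; unreached endpoints set to highest concentration. The concentration for 50% growth inhibition is given as GI50.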 Calls of active or inactive are those of the source. Cut-off read from the data, not from the text of the source: active = GI50 up to about 1.1 µM and inactive = higher.

Legend:
Assay in all cases: NCI-60 cell line screen, 48 h
XF498 = tested on: XF498
DLD-1 = tested on: DLD-1
HOP-18 = tested on: HOP-18
SNB-78 = tested on: SNB-78
KM-20L2 = tested on: KM-20L2
M19-MEL = tested on: M19-MEL
DMS-273 = tested on: DMS-273
DMS-114 = tested on: DMS-114
RXF 631 = tested on: RXF 631

Row | SMILES | GI50 (XF498) | GI50 (DLD-1) | GI50 (HOP-18) | GI50 (SNB-78) | GI50 (KM-20L2) | GI50 (M19-MEL) | GI50 (DMS-273) | GI50 (DMS-114) | GI50 (RXF 631)
1 | C=CCCn1nc(-c2ccccc2)oc1=O | > 100 µM (inactive) | > 100 µM (inactive) | > 100 µM (inactive) | > 100 µM (inactive) | > 100 µM (inactive) | > 100 µM (inactive) | > 100 µM (inactive) |  | 
2 | CN(c1ccccc1)c1c(Cl)c(=O)oc2c1ccc1occc12 |  | > 100 µM (inactive) | > 100 µM (inactive) | > 100 µM (inactive) | > 100 µM (inactive) | > 100 µM (inactive) | > 100 µM (inactive) | > 100 µM (inactive) | > 100 µM (inactive)
3 | Cc1ccc(/N=N/c2c(C)nn(-c3ccccc3)c2C)c(Br)c1 | > 100 µM (inactive) | 65.6 µM (inactive) | > 100 µM (inactive) | > 100 µM (inactive) | > 100 µM (inactive) | > 100 µM (inactive) | 51.3 µM (inactive) | > 100 µM (inactive) | > 100 µM (inactive)
4 | Cc1nc2c(nc1C)C(=O)C1=C(C2=O)C2C=CC1CC2 | 5.65 µM (inactive) | 7.53 µM (inactive) | 16.4 µM (inactive) | 3.21 µM (inactive) | 23.3 µM (inactive) | 1.75 µM (inactive) | 14.6 µM (inactive) | 1.75 µM (inactive) | 6.15 µM (inactive)
5 | Cc1cn2c(=O)c3ccccc3nc2s1 |  | > 100 µM (inactive) |  | > 100 µM (inactive) | > 100 µM (inactive) | > 100 µM (inactive) | > 100 µM (inactive) | > 100 µM (inactive) | 
6 | O=C(CCC(=O)N/N=C/c1ccccc1O)N/N=C/c1ccccc1O |  |  |  | 51.3 µM (inactive) | > 100 µM (inactive) | > 100 µM (inactive) | > 100 µM (inactive) | > 100 µM (inactive) | 
7 | CCOC(=O)C1(Cc2ccc3ccccc3c2)CCCCCN1 (stereo not given) | 16.2 µM (inactive) | 25.9 µM (inactive) | 25.5 µM (inactive) | 64.3 µM (inactive) | 22.5 µM (inactive) | 31.1 µM (inactive) | 18.9 µM (inactive) | 26.5 µM (inactive) | 
8 | Nc1ccc(C2=N/C(=C\c3cccc(N)c3)C(=O)O2)cc1 | > 100 µM (inactive) | > 100 µM (inactive) |  | > 100 µM (inactive) | > 100 µM (inactive) | > 100 µM (inactive) |  | > 100 µM (inactive) | > 100 µM (inactive)
9 | CC(=O)OC12/C(=N/O)CCCCCC1c1ccccc12 (stereo not given) | 62.8 µM (inactive) |  | > 100 µM (inactive) | 36.3 µM (inactive) | > 100 µM (inactive) | > 100 µM (inactive) | > 100 µM (inactive) | 41.7 µM (inactive) | 
10 | NC1=NC2=c3ccccc3=C(c3cnccn3)C2(c2cnccn2)c2ccccc21 (stereo not given) | 36.7 µM (inactive) | > 100 µM (inactive) | > 100 µM (inactive) | 49.1 µM (inactive) | > 100 µM (inactive) | > 100 µM (inactive) | > 100 µM (inactive) | 50.4 µM (inactive) | 
11 | N#C/C(=C\c1ccc(O)cc1)C(N)=O | > 100 µM (inactive) and > 88.5 µM (inactive) | > 100 µM (inactive) |  | > 100 µM (inactive) | > 100 µM (inactive) | > 100 µM (inactive) | > 100 µM (inactive) | > 100 µM (inactive) | > 100 µM (inactive)
12 | Oc1cc(O)c2c(-c3c(O)c(-c4ccc(O)c(O)c4)[o+]c4cc(O)cc(O)c34)c(O)c(-c3ccc(O)c(O)c3)[o+]c2c1 | 33.7 µM (inactive) | 87.7 µM (inactive) | 8 µM (inactive) | 51.5 µM (inactive) | 46 µM (inactive) | 45.3 µM (inactive) | 39.6 µM (inactive) | 32.7 µM (inactive) | 30.9 µM (inactive)
13 | CN(C)CCNC(=O)c1cccc2cc3c(Cl)cccc3nc12 | 0.394 µM (active) | 1.17 µM (inactive) | 4.51 µM (inactive) | 2.11 µM (inactive) | 1.54 µM (inactive) | 1.33 µM (inactive) | 0.562 µM (active) | 1.35 µM (inactive) | 2.55 µM (inactive)
14 | CN/N=C(/Cc1occc(=O)c1O)C(=O)Nc1ccccc1C |  |  |  | > 100 µM (inactive) | > 100 µM (inactive) | > 100 µM (inactive) |  | > 100 µM (inactive) | 
15 | Cc1cc(C(O)CCCc2ccccc2)cc(C)c1O (stereo not given) |  |  | > 100 µM (inactive) | 34.9 µM (inactive) | > 100 µM (inactive) | 37.7 µM (inactive) |  | 26.2 µM (inactive) | 51.5 µM (inactive)
